Numbers after ± are expanded uncertainties.

The conditions of the data set: Liquid, Closed cell (Static) method.

For orientation: vapor or sublimation pressure means the equilibrium pressure above the liquid or solid. With `CCC1CCC(=O)O1` (stereo unspecified) [2(3H)-furanone, 5-ethyldihydro-], the “vapor or sublimation pressure” value is 0.075 ± 0.008 kPa (283.1 K); 0.128 ± 0.008 kPa (293.1 K); 0.221 ± 0.008 kPa (303.1 K); 0.356 ± 0.016 kPa (312.9 K); 0.564 ± 0.019 kPa (323.3 K); 0.862 ± 0.027 kPa (333.3 K). Also, the “vapor or sublimation pressure” value (343.1 K) is on record as 1.367 ± 0.1 kPa.

In the case of `CC1CCCC(=O)O1` (stereo unspecified) [2H-pyran-2-one, tetrahydro-6-methyl-], the “vapor or sublimation pressure” value is 0.005 ± 0.002 kPa (283.1 K); 0.011 ± 0.006 kPa (293.2 K); 0.025 ± 0.016 kPa (303.1 K); 0.054 ± 0.004 kPa (313.1 K); 0.103 ± 0.006 kPa (323.2 K); 0.191 ± 0.01 kPa (333.1 K). The “vapor or sublimation pressure” value (343.1 K) is 0.354 ± 0.02 kPa.

As for `O=C1CCCCCO1` [6-hexanolactone], the “vapor or sublimation pressure” value (283.2 K) is 0.045 ± 0.002 kPa; the “vapor or sublimation pressure” value (292.9 K) is on record as 0.079 ± 0.003 kPa; the “vapor or sublimation pressure” value (302.9 K) stood at 0.131 ± 0.006 kPa; the “vapor or sublimation pressure” value (313.1 K) was found to be 0.213 ± 0.008 kPa; the “vapor or sublimation pressure” value (323.1 K) is 0.339 ± 0.012 kPa; the “vapor or sublimation pressure” value (333.2 K) came to 0.518 ± 0.021 kPa. Moreover, the “vapor or sublimation pressure” value (343.2 K) worked out at 0.768 ± 0.031 kPa.
